“And” between values parts separate entries of the source, which are not always exact repeats. Equal entries are not always repeated. After the bases stand the sugars from the 5' end (letter, count) and the backbone: PS all phosphorothioate, else s phosphorothioate and o phosphodiester by linkage. Methylation of C is not given here. e = 2'-O-(2-methoxyethyl) (MOE); l = locked nucleic acid (LNA); k = constrained ethyl (cEt); d = 2'-deoxy (DNA)

Among the data in the OligoGym collection are target mRNA inhibition values, retold here.

The target in one data set is APOL1. To be noted: ASO.
The target of the next data set is SNHG14. To be noted: ASO, Human Neuronal Cell.

On to “AACACATCATTGGGTT (sugars kkkddddkekeddddd, PS)”, for which the target mRNA inhibition in the data set with APOL1 (A431, 2 µM) was determined as 21%.
For AACATTGAAACACCAG (sugars k4 d9 k3, PS), the target mRNA inhibition in the data set with APOL1 (A431, 0.0625 µM) was found to be 35%; with APOL1 (A431, 0.25 µM) it was 71%; in the data set with APOL1 (A431, 1 µM), 89%.
“AACGCAATGCTGACTT (sugars kkkddddkekeddddd, PS)”: the target mRNA inhibition with APOL1 (A431, 2 µM) amounted to 83%.
As to “AAGATTGGCTCTGGCT (sugars kkddddekekeddddd, PS)”, the target mRNA inhibition with APOL1 (A431, 2 µM) is 66%.
Take “AAGATTGGCTCTGGCT (sugars kkddddkdkdkddddd, PS)”: in the data set with APOL1 (A431, 2 µM), the target mRNA inhibition amounted to 65%.
As for “AAGCTTTAAACTCAGG (sugars k2 d4 e3 k2 d5, PS)”, the target mRNA inhibition in the data set with APOL1 (A431, 0.0156 µM) was 15%; with APOL1 (A431, 0.0625 µM), 48%; in the data set with APOL1 (A431, 0.25 µM), 76%; in the data set with APOL1 (A431, 1 µM), 92%; in the data set with APOL1 (A431, 2 µM) it was 95%.
As for “AAGCTTTAAACTCAGG (sugars k3 d4 k3 e1 d5, PS)”, the target mRNA inhibition with APOL1 (A431, 2 µM) is 72%.
Same read-out and setting: to “AAGCTTTAAACTCAGG (sugars kkddddkekekddddd, PS)” belongs 48%; to “AAGTATTGCCAGCTAA (sugars k2 d4 e3 k2 d5, PS)”, 63%; to “AAGTATTGCCAGCTAA (sugars kdddddkekekddddd, PS)”, 54%.
For the sequence AAGTCAGTACAGAGCA (sugars k4 d9 k3, PS), the target mRNA inhibition is 52% in the data set with APOL1 (A431, 0.0625 µM); 79% in the data set with APOL1 (A431, 0.25 µM); 89% in the data set with APOL1 (A431, 1 µM).
As for AATAATGGTAGGTCTA (sugars k4 d9 k3, PS), the target mRNA inhibition with APOL1 (A431, 0.0625 µM) was determined as 41%; with APOL1 (A431, 0.25 µM) it was 71%; in the data set with APOL1 (A431, 1 µM) it was 84%.
As to “AATTCTATTAGAGGGC (sugars kkddddekekeddddd, PS)”, the target mRNA inhibition with APOL1 (A431, 2 µM) is 79%.
Take “ACACATCATTGGGTTA (sugars k2 d4 e3 k2 d5, PS)”: the target mRNA inhibition with APOL1 (A431, 2 µM) is 51%.
ACACATCATTGGGTTA (sugars k4 d9 k3, PS): the target mRNA inhibition was 54% with APOL1 (A431, 0.0625 µM); 75% with APOL1 (A431, 0.25 µM); 87% with APOL1 (A431, 1 µM).
As for “ACACATCATTGGGTTA (sugars kkddddkekekkdddd, PS)”, the target mRNA inhibition with APOL1 (A431, 2 µM) is 20%.
Same read-out and setting: the result for “ACACATCATTGGGTTA (sugars kkkddddkdkdkdddd, PS)” reads 48%.
Same read-out and setting: the result for “ACATCATTGGGTTATG (sugars kdddddkekekddddd, PS)” reads 89%; that for “ACATCATTGGGTTATG (sugars kddddkekekeddddd, PS)”, 76%.
On the same count and under the same terms, to “ACGCAATGCTGACTTG (sugars kkddddkekekkdddd, PS)” belongs 72%.
As for ACTCAAGTCAGTACAG (sugars k4 d9 k3, PS), the target mRNA inhibition turned out to be 27% in the data set with APOL1 (A431, 0.0625 µM); 58% in the data set with APOL1 (A431, 0.25 µM); 77% with APOL1 (A431, 1 µM).
For ACTCCTTATGTTTTGA (sugars k4 d9 k3, PS) the same measures were 46%, 75% and 91%.
For ACTGTTCTAACTCTTG (sugars k4 d9 k3, PS) the same measures were 85%, 92% and 95%.
Turning to “ACTTTATACCAGTGTC (sugars kkkddddkekeddddd, PS)”, the target mRNA inhibition in the data set with APOL1 (A431, 2 µM) was determined as 65%.
In the case of AGAACTCAAGTCAGTA (sugars k4 d9 k3, PS), the target mRNA inhibition in the data set with APOL1 (A431, 0.0625 µM) was 38% and 62%; with APOL1 (A431, 0.25 µM) it was 67% and 83%; in the data set with APOL1 (A431, 1 µM), 86% and 88%.
For “AGATTGGCTCTGGCTC (sugars kddddkekekeddddd, PS)”, the target mRNA inhibition in the data set with APOL1 (A431, 2 µM) stood at 23%.
Still for that read-out and setting: to “AGCTTTAAACTCAGGT (sugars kddddkekekeddddd, PS)” belongs 52%; to “AGCTTTAAACTCAGGT (sugars kkddddkekekkdddd, PS)”, 16%.
As for AGGTTTGGATGGAAGG (sugars k4 d9 k3, PS), the target mRNA inhibition in the data set with APOL1 (A431, 0.0625 µM) was 36%; in the data set with APOL1 (A431, 0.25 µM), 73%; with APOL1 (A431, 1 µM) it was 88%.
Regarding “AGTATTGCCAGCTAAG (sugars k2 d4 e4 k2 d4, PS)”, the target mRNA inhibition with APOL1 (A431, 2 µM) is 59%.
Turning to “AGTATTGCCAGCTAAG (sugars k3 d4 k3 e1 d5, PS)”, the target mRNA inhibition with APOL1 (A431, 2 µM) came to 89%.
Turning to “AGTATTGTTTTTGTGG (sugars k2 d4 e3 k2 d5, PS)”, the target mRNA inhibition with APOL1 (A431, 2 µM) is 90%.
“AGTTTTGTAAGTGCAA (sugars k2 d4 e3 k2 d5, PS)”: the target mRNA inhibition in the data set with APOL1 (A431, 0.0156 µM) was 10%; in the data set with APOL1 (A431, 0.0625 µM), 49%; with APOL1 (A431, 0.25 µM) it was 79%; with APOL1 (A431, 1 µM), 93%; with APOL1 (A431, 2 µM), 94%.
On to “AGTTTTGTAAGTGCAA (sugars kkdddddkekeddddd, PS)”, for which the target mRNA inhibition with APOL1 (A431, 2 µM) was 92%.
On the same count and under the same terms, to “AGTTTTGTAAGTGCAA (sugars kkddddkekekddddd, PS)” belongs 81%; to “ATATCAGATGGGTACT (sugars kkddddekekeddddd, PS)”, 27%.
On the same count and under the same terms, to “ATCAGATGGGTACTTC (sugars kddddkekekeddddd, PS)” belongs 43%; to “ATCAGATGGGTACTTC (sugars kkkddddkekekdddd, PS)”, 54%.
“ATGCTAATTTTCTGAC (sugars kkddddekekeddddd, PS)”: the target mRNA inhibition in the data set with APOL1 (A431, 2 µM) stood at 95%.
The same measure, in the same setting: to “ATTCAGAATTTCCACT (sugars kkddddkekekddddd, PS)” belongs 76%; to “ATTCAGAATTTCCACT (sugars kkddddkekekkdddd, PS)”, 57%.
On to “ATTCAGAATTTCCACT (sugars kkkddddkekekdddd, PS)”, for which the target mRNA inhibition with APOL1 (A431, 2 µM) was determined as 56%.
With ATTCCTGGGCAGTTCA (sugars k4 d9 k3, PS), the target mRNA inhibition is 37% with APOL1 (A431, 0.0625 µM); 43% with APOL1 (A431, 0.25 µM); 58% with APOL1 (A431, 1 µM).
For “ATTCTATTAGAGGGCT (sugars k3 d4 k3 e1 d5, PS)”, the target mRNA inhibition with APOL1 (A431, 2 µM) turned out to be 85%.
Consider ATTCTATTAGAGGGCT (sugars k4 d9 k3, PS), for which the target mRNA inhibition is 31% with APOL1 (A431, 0.0156 µM); 54% and 53% and 55% with APOL1 (A431, 0.0625 µM); 82% and 76% and 86% in the data set with APOL1 (A431, 0.25 µM).
For “ATTCTATTAGAGGGCT (sugars kddddkekekeddddd, PS)”, in the data set with APOL1 (A431, 2 µM), the target mRNA inhibition is 34%.
The same measure, in the same setting: to “ATTCTATTAGAGGGCT (sugars kkdddddkekeddddd, PS)” belongs 78%.
For “ATTCTCATGGTACAGG (sugars kkdddddkekeddddd, PS)”, the target mRNA inhibition with APOL1 (A431, 0.0156 µM) stood at 18%; with APOL1 (A431, 0.0625 µM), 46%; with APOL1 (A431, 0.25 µM), 74%; with APOL1 (A431, 1 µM), 90%; in the data set with APOL1 (A431, 2 µM), 95%.
“ATTCTCATGGTACAGG (sugars kkddddkekekddddd, PS)”: the target mRNA inhibition in the data set with APOL1 (A431, 2 µM) is 76%.
Still for that read-out and setting: the result for “ATTTCTTGATGTGGTG (sugars kddddkekekeddddd, PS)” reads 81%; that for “CAACACATCATTGGGT (sugars k2 d4 e3 k2 d5, PS)”, 80%.
The same measure, in the same setting: to “CAACACATCATTGGGT (sugars kkddddkekekddddd, PS)” belongs 43%; to “CAACACATCATTGGGT (sugars kkkddddkekekdddd, PS)”, 30%.
Take “TTTATTTCCATTTATTTTC (sugars ldldlddddddddlldlll, PS)”: in the data set with SNHG14 (7.5 µM), the target mRNA inhibition is 53%.
With “TTTATTTCCATTTATTTTC (sugars lllddldddddddllldll, PS)”, in the data set with SNHG14 (7.5 µM), the target mRNA inhibition stood at 51%.
With “TTTATTTCCATTTATTTTCA (sugars lddddldddddddldlddll, PS)”, in the data set with SNHG14 (7.5 µM), the target mRNA inhibition was 46%.
Same read-out and setting: the result for “TTTATTTCCATTTATTTTCA (sugars ldddlldddddddddlldll, PS)” reads 65%; that for “TTTATTTCCATTTATTTTCA (sugars ldldddddddddddlddlll, PS)”, 60%; that for “TTTATTTCCATTTATTTTCA (sugars lldldlddddddddldldll, PS)”, 63%.
Same read-out and setting: to “TTTCAGCTTTTAACCAGAGT (sugars l2 d15 l3, PS)” belongs 67%; to “TTTCCATTTATTTCCATTTA (sugars l2 d2 l1 d12 l3, PS)”, 62%; to “TTTCCATTTATTTCCATTTA (sugars lddlddlddddddddlddll, PS)”, 61%.
In the case of “TTTCCTATATTCTCTTA (sugars l4 d11 l2, PS)”, the target mRNA inhibition with SNHG14 (0.2 µM) worked out at 56%; with SNHG14 (1 µM) it was 64%.
For TTTCTTACTATCTTCA (sugars l4 d10 l2, PS) the same measures were 53% and 61%.
Taken in the same sequence, the figures for “TTTGACATTCCATCTCC (sugars l2 d12 l3, PS)” were 38% and 55%.
Consider “TTTTAACCAGAGTGGCA (sugars l3 d11 l3, PS)”, for which the target mRNA inhibition with SNHG14 (7.5 µM) was found to be 56%.
Still for that read-out and setting: the result for “TTTTATACCTTTCTTTAACC (sugars l1 d15 l1 d1 l2, PS)” reads 24%.
In the case of “TTTTATACCTTTCTTTAACC (sugars ldddlddddddddlddddll, PS)”, in the data set with SNHG14 (7.5 µM), the target mRNA inhibition was -9%.
For the sequence “TTTTTATACCTTTCTTTAAC (sugars llldlddddddddldldlll, PS)”, the target mRNA inhibition with SNHG14 (7.5 µM) was 62%.
On the same count and under the same terms, the result for “TTTTTTCTTACTATCTTCAA (sugars ldddddldddddddllddll, PS)” reads 43%; that for “TTTTTTTCTTACTATCTTCA (sugars l1 d14 l1 d2 l2, PS)”, 17%.
On to “TTTTTTTCTTACTATCTTCA (sugars l2 d3 l1 d12 l2, PS)”, for which, in the data set with SNHG14 (7.5 µM), the target mRNA inhibition came out at 14%.
Same read-out and setting: the result for “TTTTTTTCTTACTATCTTCA (sugars lldldddddddddlddddll, PS)” reads 49%.
